Reference: paper PMC11480511 (Scientific Reports, 2024)
Values after ≈ are worked out from the molar mass of the structure shown. Where two headings read alike, the source gives them in different places.

What was measured:
SN12C = experiment: NCI single-dose growth inhibition screen; assay type: cell-based; settings: Homo sapiens; Renal Cancer SN12C; single dose 10^−5 M
PC-3 = experiment: NCI single-dose growth inhibition screen; assay type: cell-based; settings: Homo sapiens; Prostate Cancer PC-3; single dose 10^−5 M
LOX IMVI = experiment: NCI single-dose growth inhibition screen; assay type: cell-based, human; settings: Melanoma LOX IMVI, single dose 10^−5 M; for inhibition at 10 µM: Homo sapiens, LOX IMVI
SF-268 = experiment: NCI single-dose growth inhibition screen; assay type: cell-based; settings: Homo sapiens; CNS Cancer SF-268; single dose 10^−5 M
M14 = experiment: NCI single-dose growth inhibition screen; assay type: cell-based; settings: Homo sapiens; Melanoma M14; single dose 10^−5 M
Protocol: Following the guidelines established by the drug evaluation department of the National Cancer Institute (NCI), USA, all target compounds 3a–l were examined against 60 cancer cell lines at a single concentration of 10 µM.
The anti-cancer potential of the tested compounds was evaluated at the National cancer institute (NCI), USA, against 9 panels of 60 various cell lines derived from nine human tumours available usually at NCI library. The procedures for the screening were described in details in NCI website (dttp://www.dtp.nci.nih.gov.) and were done according to NCI protocols[60] . The anticancer screening was carried out at single dose of 10^−5 M, NCI, Bethesda, USA. The results obtained as growth inhibition (%).

CAKI-1 = experiment: NCI single-dose growth inhibition screen; assay type: cell-based; settings: Homo sapiens; Renal Cancer CAKI-1; single dose 10^−5 M
ACHN = experiment: NCI single-dose growth inhibition screen; assay type: cell-based; settings: Homo sapiens; Renal Cancer ACHN; single dose 10^−5 M
OVCAR-8 = experiment: NCI single-dose growth inhibition screen; assay type: cell-based; settings: Homo sapiens; Ovarian Cancer OVCAR-8; single dose 10^−5 M
A498 = experiment: NCI single-dose growth inhibition screen; assay type: cell-based, human; settings: single dose 10^−5 M; for inhibition at 10 µM: Homo sapiens, A498, Renal Cancer A498
NCI-H460 = experiment: NCI single-dose growth inhibition screen; assay type: cell-based; settings: Homo sapiens; Non-Small Cell Lung Cancer NCI-H460; single dose 10^−5 M
786-0 = experiment: NCI single-dose growth inhibition screen; assay type: cell-based; settings: Homo sapiens; Renal Cancer 786-0; single dose 10^−5 M
NCI-H23 = experiment: NCI single-dose growth inhibition screen; assay type: cell-based; settings: Homo sapiens; Non-Small Cell Lung Cancer NCI-H23; single dose 10^−5 M
SR = experiment: NCI single-dose growth inhibition screen; assay type: cell-based; settings: Homo sapiens; Leukemia SR; single dose 10^−5 M
SNB-19 = experiment: NCI single-dose growth inhibition screen; assay type: cell-based; settings: Homo sapiens; CNS Cancer SNB-19; single dose 10^−5 M
MOLT-4 = experiment: NCI single-dose growth inhibition screen; assay type: cell-based; settings: Homo sapiens; Leukemia MOLT-4; single dose 10^−5 M
T-47D = experiment: NCI single-dose growth inhibition screen; assay type: cell-based; settings: Homo sapiens, T47D; Breast Cancer T-47D; single dose 10^−5 M
MALME-3 M = experiment: NCI single-dose growth inhibition screen; assay type: cell-based; settings: Homo sapiens; Melanoma MALME-3 M; single dose 10^−5 M
EKVX = experiment: NCI single-dose growth inhibition screen; assay type: cell-based; settings: Homo sapiens; Non-Small Cell Lung Cancer EKVX; single dose 10^−5 M
HOP-92 = experiment: NCI single-dose growth inhibition screen; assay type: cell-based; settings: Homo sapiens; Non-Small Cell Lung Cancer HOP-92; single dose 10^−5 M
TK-10 = experiment: NCI single-dose growth inhibition screen; assay type: cell-based; settings: Homo sapiens; Renal Cancer TK-10; single dose 10^−5 M
MDA-MB231 = experiment: NCI single-dose growth inhibition screen; assay type: cell-based; settings: Homo sapiens, MDA-MB-231; Breast Cancer MDA-MB231; single dose 10^−5 M
UACC-62 = experiment: NCI single-dose growth inhibition screen; assay type: cell-based; settings: Homo sapiens; Melanoma UACC-62; single dose 10^−5 M
CCRF-CEM = experiment: NCI single-dose growth inhibition screen; assay type: cell-based; settings: Homo sapiens; Leukemia CCRF-CEM; single dose 10^−5 M
MCF7 = experiment: NCI single-dose growth inhibition screen; assay type: cell-based, human; settings: Homo sapiens, MCF7, Breast Cancer MCF7; single dose 10^−5 M
[1] = tested on: P. aeruginosa ATCC 27,853; experiment: Antibacterial screening, agar cup diffusion method; assay type: cell-based; settings: Gram –ve strain; for MIC: Pseudomonas aeruginosa, ATCC27, read-out: Minimum inhibitory concentrations (MIC, µM) P. aeruginosa ATCC 27,853
Protocol: (§1) Anti-bacterial activity of the recently synthesized compounds 3a-k was evaluated at AUMC (Assiut University Mycological Centre), Assiut, Egypt. Assays were done against Gram-negative strains of K. pneumoniae (ATCC 100310, E. coli (ATCC 25922), Pseudomonas aeruginosa (ATCC 27853) and the Gram-positive S. aureus (ATCC 6538) strain utilizing standard agar cup diffusion method. The isolates from the four bacterial species examined were kept in TSB (Trypticase Soya Broth, Becton and Dickinson) with 10% glycerol at -70 °C and then subcultured on TSA (Trypticase Soya Agar, Becton and Dickinson) and TSB for 24 h at 37 °C former to inoculation. Bacterial isolates were then plated on sterile petri plates with 1 × 10^8 CFU/mL (0.5 McFarland turbidity) and 20 mL of Mueller Hinton Agar media (Oxoid) was then loaded. To ensure that the microorganisms were evenly dispersed, the plates were gently rotated before being left to harden on a level surface. Four equally spaced spherical-shaped wells (10 mm diameter) were painstakingly drilled using a sterilized cork bore after media solidification. All tested compounds under test underwent two-fold serial dilutions in a sequential manner. Three replications of 100 µL of each concentration were added to a well using a micropipette. Plates were then incubated for 24-hour at 37 °C. The average of the inhibition zones was then calculated. To determine the MICs, the natural logarithm of each diluted test substance’s concentration was plotted against the average area of the related inhibition zone. Following that, a regression line was created and the intercept on the ‘ln concentration” axis was determined, and the antilogarithm was calculated to indicate the MIC value[34],[63].

SF-539 = experiment: NCI single-dose growth inhibition screen; assay type: cell-based; settings: Homo sapiens; CNS Cancer SF-539; single dose 10^−5 M
HCT-116 = experiment: NCI single-dose growth inhibition screen; assay type: cell-based; settings: Homo sapiens; Colon Cancer HCT-116; single dose 10^−5 M
HS 578T = experiment: NCI single-dose growth inhibition screen; assay type: cell-based; settings: Homo sapiens; Breast Cancer HS 578T; single dose 10^−5 M
[2] = tested on: K. pneumoniae ATCC 10,031; experiment: Antibacterial screening, agar cup diffusion method; assay type: cell-based; settings: read-out: Minimum inhibitory concentrations (MIC, µM) K. pneumoniae ATCC 10,031
Protocol: as §1

BT-549 = experiment: NCI single-dose growth inhibition screen; assay type: cell-based; settings: Homo sapiens; Breast Cancer BT-549; single dose 10^−5 M
RPMI-8226 = experiment: NCI single-dose growth inhibition screen; assay type: cell-based; settings: Homo sapiens; Leukemia RPMI-8226; single dose 10^−5 M
human melanoma LOX IMVI = experiment: cells
SNB-75 = experiment: NCI single-dose growth inhibition screen; assay type: cell-based, human; settings: Homo sapiens, SNB-75, CNS Cancer SNB-75; single dose 10^−5 M
[3] = Klebsiella pneumoniae, ATCC10, Gram –ve strain

Compound | inhibition at 10 µM (SN12C) [%] | inhibition at 10 µM (PC-3) [%] | inhibition at 10 µM (LOX IMVI) [%] | inhibition at 10 µM (SF-268) [%] | inhibition at 10 µM (M14) [%] | inhibition at 10 µM (CAKI-1) [%] | inhibition at 10 µM (ACHN) [%] | inhibition at 10 µM (OVCAR-8) [%] | inhibition at 10 µM (A498) [%] | inhibition at 10 µM (NCI-H460) [%] | inhibition at 10 µM (786-0) [%] | inhibition at 10 µM (NCI-H23) [%] | inhibition at 10 µM (SR) [%] | inhibition at 10 µM (SNB-19) [%] | inhibition at 10 µM (MOLT-4) [%] | inhibition at 10 µM (T-47D) [%] | inhibition at 10 µM (MALME-3 M) [%] | inhibition at 10 µM (EKVX) [%] | inhibition at 10 µM (HOP-92) [%] | inhibition at 10 µM (TK-10) [%] | further results
Cc1ccc(/C=C2\SC(=O)N(CCCC(=O)N3CCN(c4cc5c(cc4F)c(=O)c(C(=O)O)cn5C4CC4)CC3)C2=O)cc1 [3c] | < 0 | 1.1 | 3.5 | 3.7 | < 0 | 1.5 | 2.3 | < 0 | 5.3 | < 0 | 0.9 | 1.8 | < 0 | < 0 | < 0 | < 0 | < 0 | 2.4 | < 0 | < 0 | melting point: 233 to 234 °C; inhibition at 10 µM (MDA-MB231): < 0%; inhibition at 10 µM (UACC-62): 4.2%; inhibition at 10 µM (CCRF-CEM): 2.9%; inhibition at 10 µM (MCF7): < 0%; MIC [1]: > 20 µM; inhibition at 10 µM (SF-539): 0.9%; inhibition at 10 µM (HCT-116): < 0%; inhibition at 10 µM (HS 578T): < 0%
O=C(O)c1cn(C2CC2)c2cc(N3CCN(C(=O)CCCN4C(=O)S/C(=C\c5ccc(F)cc5)C4=O)CC3)c(F)cc2c1=O [3i] | 2.2 | < 0 | 51.3 | 3.1 | 4.6 | 4.9 | 4.6 | 6.8 | 41.5 | < 0 | 18.2 | 6.5 | 3.6 | 6.2 | < 0 | 5 | 14.8 | < 0 | 5.7 | 4.7 | MIC [2, 3]: > 20 µM; inhibition at 10 µM (BT-549): 8.6%; Growth Inhibition (%) (LOX IMVI): 51.3%; Growth Inhibition (%) (A498; Renal Cancer A498): 41.5%; inhibition at 10 µM (RPMI-8226): < 0%; viability at 0.4 µM (human melanoma LOX IMVI): 74.9%; viability at 1.6 µM (human melanoma LOX IMVI): 67.8%; viability at 25 µM (human melanoma LOX IMVI): 51.5%; viability at 100 µM (human melanoma LOX IMVI): 41.2%; IC50 (human melanoma LOX IMVI; read-out: In vitro cytotoxicity (IC50) LOX IMVI (µM ± SEM)): 25.4 ± 1.43 µM; inhibition at 10 µM (MDA-MB231): 26.4%; inhibition at 10 µM (UACC-62): 19.3%; inhibition at 10 µM (CCRF-CEM): 4.2%; inhibition at 10 µM (MCF7): 1.3%; Minimum inhibitory concentrations (MIC, µM) P. aeruginosa ATCC 27,853 [1]: did not show considerable anti-bacterial activity; MIC [1]: > 20 µM; inhibition at 10 µM (SF-539): 5.8%; inhibition at 10 µM (HCT-116): 4.5%; inhibition at 10 µM (SNB-75): 16.5%; inhibition at 10 µM (HS 578T): 3%
COc1ccc(C=C2SC(=O)N(CCCC(=O)N3CCN(c4cc5c(cc4F)c(=O)c(C(=O)O)cn5C4CC4)CC3)C2=O)cc1 [3e, 1-cyclopropyl-6-fluoro-7-[4-[4-[5-[(4-methoxyphenyl)methylene]-2,4-dioxo-thiazolidin-3-yl]butanoyl]piperazin-1-yl]-4-oxoquinoline-3-carboxylic acid] | < 0 | < 0 | 42.5 | 2.3 | < 0 | 5.5 | 1.2 | 5.3 | 32 | 0 | 18.7 | 2.6 | 4.3 | 3.8 | < 0 | 0.6 | 2.9 | 0.4 | 8.3 | 11.3 | MIC ([2]; Gram –ve strain): 0.19 µM (≈ 0.121 µg/mL); MIC [2, 3]: 0.13 to 0.8 µM (≈ 0.0825 to 0.508 µg/mL); inhibition at 10 µM (BT-549): 10.3%; inhibition at 10 µM (RPMI-8226): < 0%; viability at 0.4 µM (human melanoma LOX IMVI): 76.7%; viability at 1.6 µM (human melanoma LOX IMVI): 67.7%; viability at 25 µM (human melanoma LOX IMVI): 52%; viability at 100 µM (human melanoma LOX IMVI): 47.4%; inhibition at 10 µM (MDA-MB231): 12.4%; inhibition at 10 µM (UACC-62): 7%; inhibition at 10 µM (CCRF-CEM): < 0%; inhibition at 10 µM (MCF7): < 0%; MIC [1]: > 20 µM; inhibition at 10 µM (SF-539): 6.5%; inhibition at 10 µM (HCT-116): 0%; inhibition at 10 µM (SNB-75): 12.6%; inhibition at 10 µM (HS 578T): 2.4%
